Source: US12503471B2, “Triazatricycle compounds for the treatment of autoimmune disease” (Hoffmann-La Roche Inc., priority 2019, dated 2025)

Assay: Human microsomal stability assay
Type: in vitro ADME
Conditions: human liver microsomes, 1 μM test compound, 0.5 mg/mL protein, 37° C., pH 7.4
Method: Human Microsomal Stability Assay
Human liver microsomes (Cat.NO.: 452117, Corning, USA) were preincubated with test compound for 10 minutes at 37° C. in 100 mM potassium phosphate buffer, pH 7.4. The reactions were initiated by adding NADPH regenerating system. The final incubation mixtures contained 1 μM test compound, 0.5 mg/mL liver microsomal protein, 1 mM MgCl2, 1 mM NADP, 1 unit/mL isocitric dehydrogenase and 6 mM isocitric acid in 100 mM potassium phosphate buffer, pH 7.4. After incubation times of 0, 3, 6, 9, 15 and 30 minutes at 37° C., 300 μL of cold ACN (including internal standard) was added to 100 μL incubation mixture to terminate the reaction. Following precipitation and centrifugation, 100 uL supernatant will be taken out and added 300 uL water. The amount of compound remaining in the samples was determined by LC-MS/MS. Controls of no NADPH regenerating system at zero and 30 minutes were also prepared and analyzed. The results were categorized as: low (7.0 mL/min/kg), medium (7.0-16.2 mL/min/kg) and high (16.2-23.2 mL/min/kg).

Row | CL (h) | SMILES
1 | 8.1 mL/min/kg | CC1(N)CCN(c2ccc3c(n2)CN2CCN(c4ccc(C#N)c5ncccc45)C[C@H]32)CC1 [Example 4B, 5-[(2S)-11-(4-amino-4-methyl-1-piperidyl)-4,7,10-triazatricyclo[7.4.0.02,7]trideca-1(9),10,12-trien-4-yl]quinoline-8-carbonitrile]
2 | 6.2 mL/min/kg | N#Cc1ccc(N2CCN3Cc4cc(N5CCNCC5)ncc4C3C2)c2cccnc12 (centres unmarked) [Example 1, 5-(11-Piperazin-1-yl-4,7,12-triazatricyclo[7.4.0.02,7]trideca-1(9),10,12-trien-4-yl)quinoline-8-carbonitrile]
